Results as given in ChEMBL document CHEMBL1201862, “PubChem BioAssay data set” (2004).
The source made the active and inactive calls.

How the values were obtained:
[1] = HEK-293T viability loss after treatment – luminescence, T-cell screen hits, cytotoxicity control for TCR NF-kB inhibitor project, dose response (AID 489026); format: functional, cell-based;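 further: cells exposed to compound about 14 hours before the viability readout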
[2] = alpha-synuclein stem-loop luciferase translation blockers – H4 neuroglioma cells, luminescence, confirmation (AID 1988); format: functional, cell-based
[3] = viability loss of HPDE-C7K cells – cell-based, fluorescence, HTS, primary screen (AID 431); format: functional; details: Homo sapiens
[4] = luciferase reporter signal reduction – luminescence, H4-C neuroglioblastoma cells, dose response (AID 2458); format: functional, cell-based;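 further: H4 neuroglioblastoma cells stably carrying a luciferase reporter gene fusion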
[5] = IC50 of Artemis nuclease activity blockers – biochemical, fluorescence intensity, dose response (AID 720701); format: functional;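 further: Artemis endonuclease enzyme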
[6] = alpha-synuclein stem-loop translation blockers – luminescence, H4 neuroglioblastoma cells, dose confirmation, confirmation (AID 2454); format: functional, cell-based;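 further: H4 neuroglioblastoma cells carrying an alpha-synuclein 5'UTR luciferase reporter; potency for inhibition of the luciferase signal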
J774.A1 = experiment: Confirmation of image-based Screening Assay for Inhibitors of Phagocytosis. [Related pubchem assays (depositor defined):AID1029, AID1643]; format: functional, cell-based; details: Mus musculus
[7] = HPDE-C7 pancreatic duct cell viability loss – fluorescence, HTS (AID 430); format: functional, cell-based; details: Homo sapiens
cells = format: functional, cell-based
[8] = Luminescence Cell-Based Dose Response HTS to Identify Inhibitors of 5'UTR Stem-Loop Driven Prion Protein mRNA Translation in H4 Neuroglioblastoma Cells. [Related pubchem assays: 1827 (Project Summary), 1813 (Primary HTS)]; format: functional
[9] = luciferase reporter signal suppression in cells – H4 neuroglioma cells, luminescence, dose response (AID 1990); format: functional, cell-based
Tumor necrosis factor = Tumor necrosis factor (Homo sapiens, UniProt P01375); experiment: analog potency on TNFa NF-kB signaling – cell-based, revised, SAR follow-up (AID 2337); format: functional
Tumor necrosis factor, sequence (P01375 whole entry): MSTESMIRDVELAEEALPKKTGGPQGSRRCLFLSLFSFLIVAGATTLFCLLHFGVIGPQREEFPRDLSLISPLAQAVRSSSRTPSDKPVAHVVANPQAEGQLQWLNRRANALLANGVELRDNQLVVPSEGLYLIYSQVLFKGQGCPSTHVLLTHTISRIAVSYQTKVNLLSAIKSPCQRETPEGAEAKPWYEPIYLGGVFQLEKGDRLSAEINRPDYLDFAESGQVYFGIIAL

HEK293 [10] = experiment: cells; details: Homo sapiens
HEK293 [11] = experiment: cells; format: functional, cell-based; details: Homo sapiens
[12] = target: T1, Nucleotide-binding oligomerization domain-containing protein 1 (Homo sapiens, UniProt Q9Y239); experiment: blockers of NOD1 pathway activity – revised, SAR follow-up (AID 2333); format: functional
T1 sequence (Q9Y239 whole entry): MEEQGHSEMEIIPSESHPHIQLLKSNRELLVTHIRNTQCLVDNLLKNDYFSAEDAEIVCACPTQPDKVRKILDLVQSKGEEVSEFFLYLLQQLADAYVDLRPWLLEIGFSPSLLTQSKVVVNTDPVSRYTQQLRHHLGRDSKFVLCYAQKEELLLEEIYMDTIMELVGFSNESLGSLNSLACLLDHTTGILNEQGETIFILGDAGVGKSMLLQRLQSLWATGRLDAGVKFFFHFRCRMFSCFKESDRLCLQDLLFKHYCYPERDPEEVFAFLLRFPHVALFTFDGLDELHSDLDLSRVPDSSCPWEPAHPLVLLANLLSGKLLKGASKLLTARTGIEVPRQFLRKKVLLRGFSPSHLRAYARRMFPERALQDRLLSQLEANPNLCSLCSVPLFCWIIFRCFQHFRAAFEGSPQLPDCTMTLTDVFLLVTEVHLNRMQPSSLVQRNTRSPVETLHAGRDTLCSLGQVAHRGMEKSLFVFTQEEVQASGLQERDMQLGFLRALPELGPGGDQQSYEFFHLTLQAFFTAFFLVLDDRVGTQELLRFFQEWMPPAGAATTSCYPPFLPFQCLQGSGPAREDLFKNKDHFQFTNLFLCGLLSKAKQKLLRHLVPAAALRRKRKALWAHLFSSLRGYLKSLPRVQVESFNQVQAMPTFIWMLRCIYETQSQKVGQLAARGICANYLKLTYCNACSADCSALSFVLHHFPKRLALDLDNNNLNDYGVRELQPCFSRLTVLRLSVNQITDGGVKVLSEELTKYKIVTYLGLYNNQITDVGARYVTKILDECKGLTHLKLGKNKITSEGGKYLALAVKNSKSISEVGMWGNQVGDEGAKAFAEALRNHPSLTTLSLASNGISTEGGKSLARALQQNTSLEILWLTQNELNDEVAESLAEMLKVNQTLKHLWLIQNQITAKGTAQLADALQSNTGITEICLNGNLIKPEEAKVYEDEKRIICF

HEK293 [13] = experiment: cells; format: functional, cell-based; details: Homo sapiens; remark: listed apart in the source
[14] = target: Nucleotide-binding oligomerization domain-containing protein 2 (Homo sapiens, UniProt Q9HC29); experiment: PubChem AID 2334; format: functional
Nucleotide-binding oligomerization domain-containing protein 2, sequence (Q9HC29 whole entry, the tested form may be a part): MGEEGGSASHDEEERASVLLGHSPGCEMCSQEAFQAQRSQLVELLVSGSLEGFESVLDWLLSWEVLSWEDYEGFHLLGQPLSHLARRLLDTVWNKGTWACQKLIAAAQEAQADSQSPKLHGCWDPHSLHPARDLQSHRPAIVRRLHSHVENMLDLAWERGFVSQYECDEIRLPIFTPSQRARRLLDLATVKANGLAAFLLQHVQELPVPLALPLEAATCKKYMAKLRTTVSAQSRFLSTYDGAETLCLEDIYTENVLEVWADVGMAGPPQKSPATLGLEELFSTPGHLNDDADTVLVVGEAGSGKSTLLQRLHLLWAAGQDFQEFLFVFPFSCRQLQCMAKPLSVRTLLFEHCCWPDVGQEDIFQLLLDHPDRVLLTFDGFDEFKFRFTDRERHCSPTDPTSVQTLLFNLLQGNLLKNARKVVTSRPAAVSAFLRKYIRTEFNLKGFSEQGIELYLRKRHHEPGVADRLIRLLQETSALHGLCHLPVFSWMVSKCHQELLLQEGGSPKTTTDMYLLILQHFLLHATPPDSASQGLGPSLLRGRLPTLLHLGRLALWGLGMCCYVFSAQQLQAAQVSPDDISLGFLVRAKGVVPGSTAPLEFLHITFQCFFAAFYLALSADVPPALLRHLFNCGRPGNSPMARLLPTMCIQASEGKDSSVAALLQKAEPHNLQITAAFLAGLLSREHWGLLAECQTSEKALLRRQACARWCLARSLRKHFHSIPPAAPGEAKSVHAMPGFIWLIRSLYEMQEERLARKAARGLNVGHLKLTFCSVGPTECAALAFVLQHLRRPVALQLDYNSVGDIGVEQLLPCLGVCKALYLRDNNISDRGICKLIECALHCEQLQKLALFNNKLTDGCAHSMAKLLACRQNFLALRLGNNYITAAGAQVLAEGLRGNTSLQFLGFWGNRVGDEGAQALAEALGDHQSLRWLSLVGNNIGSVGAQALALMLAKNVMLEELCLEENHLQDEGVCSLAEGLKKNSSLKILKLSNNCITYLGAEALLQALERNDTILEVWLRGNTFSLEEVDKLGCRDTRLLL

HEK293 [15] = experiment: NOD2 signaling inhibitors in MDP-stimulated cells, cell-based, uHTS, luminescence (AID 2001); format: functional; details: Homo sapiens
HEK293 [16] = experiment: inhibition of NOD1-driven NF-kB reporter – cell-based, luminescence, uHTS, primary screen (AID 1578); format: functional; details: Homo sapiens
Estrogen receptor beta [17] = target: T2, Estrogen receptor beta (Homo sapiens, UniProt Q92731);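 further: recombinant ER-beta bound to coactivator SRC1 peptide in presence of estradiol agonist; inhibitors block coactivator peptide binding and lower the FRET signal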
T2 sequence (Q92731 whole entry): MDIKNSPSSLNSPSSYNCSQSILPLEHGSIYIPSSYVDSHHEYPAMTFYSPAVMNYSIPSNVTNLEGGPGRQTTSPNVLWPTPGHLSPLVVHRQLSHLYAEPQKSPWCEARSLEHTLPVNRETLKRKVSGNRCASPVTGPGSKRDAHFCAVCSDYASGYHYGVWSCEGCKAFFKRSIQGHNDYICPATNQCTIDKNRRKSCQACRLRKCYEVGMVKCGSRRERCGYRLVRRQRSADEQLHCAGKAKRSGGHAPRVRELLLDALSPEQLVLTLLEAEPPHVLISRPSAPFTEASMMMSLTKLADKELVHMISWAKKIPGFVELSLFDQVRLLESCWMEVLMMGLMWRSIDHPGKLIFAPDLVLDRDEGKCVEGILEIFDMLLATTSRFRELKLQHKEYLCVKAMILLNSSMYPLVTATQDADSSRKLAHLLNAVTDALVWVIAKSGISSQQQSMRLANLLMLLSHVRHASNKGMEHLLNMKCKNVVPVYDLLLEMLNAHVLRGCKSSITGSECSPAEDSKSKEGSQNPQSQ

[18] = target: Induced myeloid leukemia cell differentiation protein Mcl-1 (Homo sapiens, UniProt Q07820); format: functional
Induced myeloid leukemia cell differentiation protein Mcl-1, sequence (Q07820 whole entry): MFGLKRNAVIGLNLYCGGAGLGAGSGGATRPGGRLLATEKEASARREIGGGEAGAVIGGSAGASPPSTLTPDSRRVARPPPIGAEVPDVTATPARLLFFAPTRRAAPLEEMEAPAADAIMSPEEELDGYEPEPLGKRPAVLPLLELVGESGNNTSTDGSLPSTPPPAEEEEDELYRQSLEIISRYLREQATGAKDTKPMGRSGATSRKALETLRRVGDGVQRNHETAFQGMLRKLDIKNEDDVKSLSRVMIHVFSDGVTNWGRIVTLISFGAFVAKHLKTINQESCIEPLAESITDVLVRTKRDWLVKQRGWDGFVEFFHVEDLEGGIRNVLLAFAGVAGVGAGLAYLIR

Bcl-2-like protein 10 = Bcl-2-like protein 10 (Homo sapiens, UniProt Q9HD36); experiment: Bcl-B/TR3 peptide binding disruption – biochemical, fluorescence polarization, FITC-TR3 peptide, selectivity assay for Bfl-1 inhibitor project, primary screen (AID 748);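 further: fluorescence polarization from a fluorescein-labelled TR3 peptide binding purified Bcl-B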
Bcl-2-like protein 10, sequence (Q9HD36 whole entry): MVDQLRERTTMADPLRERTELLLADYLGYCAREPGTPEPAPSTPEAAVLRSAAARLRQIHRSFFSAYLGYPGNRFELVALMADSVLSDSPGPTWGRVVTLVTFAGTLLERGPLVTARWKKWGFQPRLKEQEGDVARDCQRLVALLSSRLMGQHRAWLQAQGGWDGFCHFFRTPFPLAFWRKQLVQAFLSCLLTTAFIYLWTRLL

[19] = target: T3, Dual specificity protein phosphatase 6 (Rattus norvegicus, UniProt Q64346)
T3 sequence (Q64346 whole entry): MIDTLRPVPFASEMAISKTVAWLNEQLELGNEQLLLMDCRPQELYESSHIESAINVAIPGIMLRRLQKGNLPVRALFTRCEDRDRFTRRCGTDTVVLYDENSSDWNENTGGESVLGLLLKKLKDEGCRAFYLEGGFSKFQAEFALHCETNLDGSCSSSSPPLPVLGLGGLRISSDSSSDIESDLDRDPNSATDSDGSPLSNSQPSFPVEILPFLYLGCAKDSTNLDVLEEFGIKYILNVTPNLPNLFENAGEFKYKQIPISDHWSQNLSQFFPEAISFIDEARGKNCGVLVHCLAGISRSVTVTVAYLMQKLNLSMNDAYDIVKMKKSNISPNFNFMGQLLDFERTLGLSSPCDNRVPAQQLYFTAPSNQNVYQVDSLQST

Estrogen receptor beta [20] = target: T2, Estrogen receptor beta; experiment: blockers of SRC-3 recruitment to ERβ – biochemical, ELISA, streptavidin-HRP readout, orthogonal assay, confirmation (AID 1060)
[21] = target: T3, Dual specificity protein phosphatase 6; experiment: inhibition of rat DUSP6 enzyme activity – biochemical, in vitro, primary screen (AID 425)
[22] = target: T4, Tyrosine-protein phosphatase non-receptor type 7 (Homo sapiens, UniProt P35236); format: functional
T4 sequence (P35236 whole entry): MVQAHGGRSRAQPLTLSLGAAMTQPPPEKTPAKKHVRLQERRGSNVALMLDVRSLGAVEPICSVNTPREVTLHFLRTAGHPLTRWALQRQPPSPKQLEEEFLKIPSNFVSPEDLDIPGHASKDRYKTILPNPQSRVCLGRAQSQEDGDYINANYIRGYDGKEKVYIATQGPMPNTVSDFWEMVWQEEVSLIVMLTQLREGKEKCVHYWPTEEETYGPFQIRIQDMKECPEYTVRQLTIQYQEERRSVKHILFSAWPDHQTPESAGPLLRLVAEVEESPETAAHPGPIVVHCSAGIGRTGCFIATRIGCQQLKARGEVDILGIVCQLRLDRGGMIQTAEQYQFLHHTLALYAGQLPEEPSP

Ephrin type-A receptor 4 = Ephrin type-A receptor 4 (Mus musculus, UniProt Q03137); experiment: EphA4 ligand-binding antagonists – biochemical, colorimetric, mouse EphA4, primary screen (AID 689); format: functional
[23] = target: T3, Dual specificity protein phosphatase 6; format: functional
[24] = target: Glyceraldehyde-3-phosphate dehydrogenase (Homo sapiens, UniProt P04406)
Glyceraldehyde-3-phosphate dehydrogenase, sequence (P04406 whole entry): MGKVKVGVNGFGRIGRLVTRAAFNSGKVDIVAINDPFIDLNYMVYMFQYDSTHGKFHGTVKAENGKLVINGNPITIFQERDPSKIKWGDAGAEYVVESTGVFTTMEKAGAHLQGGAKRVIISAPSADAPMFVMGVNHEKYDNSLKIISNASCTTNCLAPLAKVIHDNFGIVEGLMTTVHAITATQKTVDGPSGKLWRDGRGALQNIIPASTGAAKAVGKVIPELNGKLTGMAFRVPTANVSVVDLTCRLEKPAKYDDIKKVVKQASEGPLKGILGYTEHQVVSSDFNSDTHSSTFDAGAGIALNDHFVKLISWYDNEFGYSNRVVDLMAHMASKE

Estrogen receptor = target: T5, Estrogen receptor (Homo sapiens, UniProt P03372);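 further: potency for inhibiting coactivator peptide recruitment to the receptor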
T5 sequence (P03372 whole entry): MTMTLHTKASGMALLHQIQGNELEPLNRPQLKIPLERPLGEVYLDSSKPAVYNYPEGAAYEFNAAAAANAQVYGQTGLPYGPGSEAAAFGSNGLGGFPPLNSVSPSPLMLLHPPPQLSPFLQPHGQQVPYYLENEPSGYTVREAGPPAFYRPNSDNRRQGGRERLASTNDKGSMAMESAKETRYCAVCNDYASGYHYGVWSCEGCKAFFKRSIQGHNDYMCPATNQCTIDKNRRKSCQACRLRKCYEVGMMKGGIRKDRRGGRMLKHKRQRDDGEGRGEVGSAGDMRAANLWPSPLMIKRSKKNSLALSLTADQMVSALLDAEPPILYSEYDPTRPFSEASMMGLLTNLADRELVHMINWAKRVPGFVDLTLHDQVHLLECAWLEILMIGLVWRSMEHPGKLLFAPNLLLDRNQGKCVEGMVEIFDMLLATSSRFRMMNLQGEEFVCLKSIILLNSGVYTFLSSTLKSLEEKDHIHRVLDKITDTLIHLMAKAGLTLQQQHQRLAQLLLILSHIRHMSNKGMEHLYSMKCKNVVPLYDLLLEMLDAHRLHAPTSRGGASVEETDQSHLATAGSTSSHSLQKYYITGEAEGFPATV

Large T antigen = Large T antigen (Simian virus 40, UniProt P03070); format: functional, Betapolyomavirus macacae;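 further: Confirmatory-stage PubChem screen for compounds that inhibit SV40 T antigen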
[25] = protection from phage-mediated lysis, alamar blue read-out – E. coli UTI89, K1F phage, bacterial capsule biogenesis inhibitors (AID 488966); format: functional
[26] = target: T6, Voltage-dependent T-type calcium channel subunit alpha-1H (Homo sapiens, UniProt O95180); experiment: Inhibitors of T-Type Calcium Channels. [Related pubchem assays (depositor defined):AID449739, AID463087, AID489005, AID493041, AID504579, AID504584, AID504619, AID504628]; format: functional
T6 sequence (O95180 whole entry): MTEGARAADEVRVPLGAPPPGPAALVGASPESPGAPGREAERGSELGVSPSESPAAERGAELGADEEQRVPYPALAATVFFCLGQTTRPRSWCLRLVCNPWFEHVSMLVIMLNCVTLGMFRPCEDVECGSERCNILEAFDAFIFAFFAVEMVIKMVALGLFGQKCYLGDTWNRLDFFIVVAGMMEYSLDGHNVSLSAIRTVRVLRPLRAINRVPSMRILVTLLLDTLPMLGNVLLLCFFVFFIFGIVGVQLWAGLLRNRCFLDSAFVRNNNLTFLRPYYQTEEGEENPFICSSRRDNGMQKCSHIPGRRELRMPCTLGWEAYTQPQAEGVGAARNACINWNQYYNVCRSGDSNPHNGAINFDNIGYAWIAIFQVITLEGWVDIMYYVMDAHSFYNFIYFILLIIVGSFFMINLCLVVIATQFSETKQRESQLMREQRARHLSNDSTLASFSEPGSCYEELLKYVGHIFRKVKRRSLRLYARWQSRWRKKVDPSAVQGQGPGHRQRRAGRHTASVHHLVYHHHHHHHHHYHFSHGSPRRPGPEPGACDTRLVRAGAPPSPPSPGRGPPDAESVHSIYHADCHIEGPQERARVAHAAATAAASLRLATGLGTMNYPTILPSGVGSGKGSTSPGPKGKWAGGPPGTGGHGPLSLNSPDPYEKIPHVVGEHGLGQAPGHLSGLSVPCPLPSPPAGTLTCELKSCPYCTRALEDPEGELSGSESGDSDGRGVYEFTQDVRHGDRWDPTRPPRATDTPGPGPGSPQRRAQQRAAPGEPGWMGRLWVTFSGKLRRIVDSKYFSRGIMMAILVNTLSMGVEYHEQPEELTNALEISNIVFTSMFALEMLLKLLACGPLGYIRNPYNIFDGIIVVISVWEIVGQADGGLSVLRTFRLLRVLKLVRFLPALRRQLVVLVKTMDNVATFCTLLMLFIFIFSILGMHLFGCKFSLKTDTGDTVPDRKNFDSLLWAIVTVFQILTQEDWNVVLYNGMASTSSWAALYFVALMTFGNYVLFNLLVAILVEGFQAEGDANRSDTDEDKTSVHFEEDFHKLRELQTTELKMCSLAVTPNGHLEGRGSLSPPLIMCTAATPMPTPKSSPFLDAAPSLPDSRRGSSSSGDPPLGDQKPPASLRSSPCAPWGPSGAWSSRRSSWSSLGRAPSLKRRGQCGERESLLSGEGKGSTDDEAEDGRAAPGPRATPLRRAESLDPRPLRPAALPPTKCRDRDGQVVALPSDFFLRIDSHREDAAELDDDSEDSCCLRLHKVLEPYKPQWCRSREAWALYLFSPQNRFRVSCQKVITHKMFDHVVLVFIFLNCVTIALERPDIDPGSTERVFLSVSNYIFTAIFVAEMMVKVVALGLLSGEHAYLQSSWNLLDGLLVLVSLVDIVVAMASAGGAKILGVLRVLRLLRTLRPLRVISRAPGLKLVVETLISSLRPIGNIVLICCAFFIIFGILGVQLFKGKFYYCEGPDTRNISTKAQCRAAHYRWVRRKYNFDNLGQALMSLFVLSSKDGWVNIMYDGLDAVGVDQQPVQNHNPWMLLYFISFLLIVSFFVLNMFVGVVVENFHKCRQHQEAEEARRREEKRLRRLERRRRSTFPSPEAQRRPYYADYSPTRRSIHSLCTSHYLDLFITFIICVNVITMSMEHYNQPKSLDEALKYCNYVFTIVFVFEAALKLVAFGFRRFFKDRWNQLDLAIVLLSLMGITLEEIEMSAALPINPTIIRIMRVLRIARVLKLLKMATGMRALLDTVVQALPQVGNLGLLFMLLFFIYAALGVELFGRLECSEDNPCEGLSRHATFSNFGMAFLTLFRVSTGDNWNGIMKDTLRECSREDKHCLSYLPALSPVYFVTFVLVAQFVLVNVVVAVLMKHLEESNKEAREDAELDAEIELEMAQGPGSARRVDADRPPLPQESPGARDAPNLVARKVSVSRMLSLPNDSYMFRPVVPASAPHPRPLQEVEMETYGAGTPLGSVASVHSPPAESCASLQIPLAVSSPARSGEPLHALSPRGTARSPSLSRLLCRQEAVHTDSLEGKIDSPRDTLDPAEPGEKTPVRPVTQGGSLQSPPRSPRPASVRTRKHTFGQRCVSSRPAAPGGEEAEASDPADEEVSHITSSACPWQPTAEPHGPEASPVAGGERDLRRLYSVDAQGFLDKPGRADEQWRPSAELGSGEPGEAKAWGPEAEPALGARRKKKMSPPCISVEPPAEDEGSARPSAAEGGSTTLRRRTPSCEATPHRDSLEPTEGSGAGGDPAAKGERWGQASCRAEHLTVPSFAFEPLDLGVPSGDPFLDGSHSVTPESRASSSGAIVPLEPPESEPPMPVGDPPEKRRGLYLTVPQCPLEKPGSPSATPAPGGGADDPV

[27] = target: T6, Voltage-dependent T-type calcium channel subunit alpha-1H; format: functional

For CCN(CC)c1ccc(-c2nn3c(-c4[nH]nc5c4CCC5)nnc3s2)cc1, which IC50 [1] is on record?
Its IC50 is 61.1 µM (inactive).

What about the EC50 [2] of the same compound?
The EC50 was < 0.1 µM (active).

What about the EC50 [3] of the same compound?
Its EC50 is 1.06 µM (active).

What about the EC50 [4] of the same compound?
The EC50 was 1.21 µM (active).

What about the IC50 [5] of the same compound?
Its IC50 is > 20 µM (inactive).

What about the EC50 [6] of the same compound?
The EC50 was 0.972 µM (active).

And the IC50 (J774.A1)?
The IC50 was 0.667 µM (active).

And the EC50 [7]?
Its EC50 is 0.75 µM (active).

And the EC50 (cells)?
Its EC50 is 0.859 µM (active).

And the EC50 [8]?
Its EC50 is 0.377 µM (active).

What about the EC50 [9] of the same compound?
Its EC50 is 0.294 µM (active).

Which results are given for CC1CCc2c(sc(NC(=O)c3cccs3)c2C(=O)O)C1 (centres undefined)?
IC50 (Tumor necrosis factor): > 20 µM (inactive); IC50 (HEK293 [10]): > 20 µM (inactive); IC50 (HEK293 [11]): > 20 µM (inactive); IC50 [12]: > 20 µM (inactive); IC50 (HEK293 [13]): > 20 µM (inactive); IC50 [14]: > 20 µM (inactive); IC50 (HEK293 [15]): > 20 µM (inactive); EC50 (HEK293 [16]): > 20 µM (inactive)

Which IC50 (Estrogen receptor beta [17]) does the source give for COc1ccc(N2Cc3cccc(C(=O)O)c3C2=O)cc1 here?
Its IC50 is 2.15 µM (active).

What about the IC50 [18] of the same compound?
The IC50 was 4.43 µM (active).

What about the IC50 (Bcl-2-like protein 10) of the same compound?
The IC50 was 4.06 µM (active).

What about the IC50 [19] of the same compound?
The IC50 was > 100 µM (inactive).

What about the IC50 (Estrogen receptor beta [20]) of the same compound?
The IC50 was 0.704 µM (not active).

And the IC50 [21]?
Its IC50 is > 10 µM (not active).

And the IC50 [22]?
Its IC50 is > 100 µM (not active).

And the IC50 (Ephrin type-A receptor 4)?
The IC50 was 9.05 µM (active).

What about the IC50 [23] of the same compound?
Its IC50 is > 100 µM (inactive).

And the IC50 [24]?
The IC50 was > 100 µM (not active).

What about the IC50 (Estrogen receptor) of the same compound?
Its IC50 is 12 µM (active).

Which IC50 (Large T antigen) does the source give for COc1ccc(NC2SC(=O)N(C)C2=O)cc1 (centres undefined) here?
Its IC50 is 80.8 µM (active).

What about the IC50 [25] of the same compound?
The IC50 was > 300 µM (active).

What does the source list for O=C(Nc1ccccc1)c1ccccc1NS(=O)(=O)c1ccc(Cl)s1?
EC50 [26]: 0.808 µM (active); EC50 [27]: 1.05 µM (active)
